Source: ChEMBL document CHEMBL1909046, “DrugMatrix in vitro pharmacology data”
Where a SMILES comes first, the peptide text is derived from it. Bridges are numbered along the chain shown (N, C = ends). [ ]: non-standard residue; d: D form. The star is where a group is joined. Threoninol(2S,3R) = C[C@@H](O)[C@H](CO)N*

How the values were obtained:
Calcitonin receptor = biological target: T1, Calcitonin receptor (Homo sapiens, UniProt P30988); type: cell membranes, Membrane; settings: t47d; also: in other assays of this panel Not Active means under 50% inhibition at 10 µM
T1 sequence (P30988 whole entry): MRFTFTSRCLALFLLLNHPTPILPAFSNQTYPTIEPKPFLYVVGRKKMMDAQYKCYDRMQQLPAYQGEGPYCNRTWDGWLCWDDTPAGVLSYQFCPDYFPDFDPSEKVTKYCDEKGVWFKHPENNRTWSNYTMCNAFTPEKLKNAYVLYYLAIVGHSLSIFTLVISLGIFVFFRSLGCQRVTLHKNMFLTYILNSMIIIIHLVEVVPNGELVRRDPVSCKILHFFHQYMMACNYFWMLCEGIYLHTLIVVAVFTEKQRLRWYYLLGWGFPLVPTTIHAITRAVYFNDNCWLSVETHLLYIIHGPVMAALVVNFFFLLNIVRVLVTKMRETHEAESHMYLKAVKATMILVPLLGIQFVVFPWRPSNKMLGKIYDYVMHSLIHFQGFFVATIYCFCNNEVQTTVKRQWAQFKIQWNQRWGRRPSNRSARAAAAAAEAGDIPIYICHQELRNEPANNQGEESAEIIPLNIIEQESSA

[1] = DRUGMATRIX: Tumor Necrosis Factor (TNF), Non-Selective radioligand binding (ligand: [125I] TNF-alpha); type: cell membranes, Membrane; settings: u-937; Not Active = under 50% inhibition at 10 µM
[2] = biological target: Platelet-activating factor receptor (Homo sapiens, UniProt P25105); type: tissue-based; also: in other assays of this panel Not Active means under 50% inhibition at 10 µM
Platelet-activating factor receptor, sequence (P25105 whole entry): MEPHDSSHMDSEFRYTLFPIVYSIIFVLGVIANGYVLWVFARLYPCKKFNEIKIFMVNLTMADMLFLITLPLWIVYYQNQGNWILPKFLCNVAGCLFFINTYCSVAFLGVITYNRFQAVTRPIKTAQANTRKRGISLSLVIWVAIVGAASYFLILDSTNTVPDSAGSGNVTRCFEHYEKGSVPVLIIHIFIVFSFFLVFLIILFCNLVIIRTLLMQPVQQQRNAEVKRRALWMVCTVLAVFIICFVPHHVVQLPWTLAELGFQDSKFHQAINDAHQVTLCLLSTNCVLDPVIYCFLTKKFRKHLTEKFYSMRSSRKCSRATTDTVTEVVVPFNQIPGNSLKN

D(3) dopamine receptor = D(3) dopamine receptor (Homo sapiens, UniProt P35462); assay: DRUGMATRIX: Dopamine D3 radioligand binding (ligand: [3H] Spiperone); type: cell membranes, CHO, Membrane; settings: cho
D(3) dopamine receptor, sequence (P35462 whole entry): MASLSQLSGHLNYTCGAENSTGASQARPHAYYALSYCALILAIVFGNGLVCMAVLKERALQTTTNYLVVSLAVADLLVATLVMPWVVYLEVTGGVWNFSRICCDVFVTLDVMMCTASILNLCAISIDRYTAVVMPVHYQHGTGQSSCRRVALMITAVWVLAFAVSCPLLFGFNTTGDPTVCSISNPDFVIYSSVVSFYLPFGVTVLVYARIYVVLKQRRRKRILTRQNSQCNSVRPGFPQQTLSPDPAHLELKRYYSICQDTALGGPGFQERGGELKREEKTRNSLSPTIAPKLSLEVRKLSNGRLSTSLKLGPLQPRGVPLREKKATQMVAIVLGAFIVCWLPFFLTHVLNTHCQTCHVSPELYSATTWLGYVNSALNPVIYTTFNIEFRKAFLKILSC

[3] = biological target: 5-hydroxytryptamine receptor 2B (Homo sapiens, UniProt P41595); type: cell membranes, CHO-K1, Membrane; also: in other assays of this panel Not Active means under 50% inhibition at 10 µM
5-hydroxytryptamine receptor 2B, sequence (P41595 whole entry): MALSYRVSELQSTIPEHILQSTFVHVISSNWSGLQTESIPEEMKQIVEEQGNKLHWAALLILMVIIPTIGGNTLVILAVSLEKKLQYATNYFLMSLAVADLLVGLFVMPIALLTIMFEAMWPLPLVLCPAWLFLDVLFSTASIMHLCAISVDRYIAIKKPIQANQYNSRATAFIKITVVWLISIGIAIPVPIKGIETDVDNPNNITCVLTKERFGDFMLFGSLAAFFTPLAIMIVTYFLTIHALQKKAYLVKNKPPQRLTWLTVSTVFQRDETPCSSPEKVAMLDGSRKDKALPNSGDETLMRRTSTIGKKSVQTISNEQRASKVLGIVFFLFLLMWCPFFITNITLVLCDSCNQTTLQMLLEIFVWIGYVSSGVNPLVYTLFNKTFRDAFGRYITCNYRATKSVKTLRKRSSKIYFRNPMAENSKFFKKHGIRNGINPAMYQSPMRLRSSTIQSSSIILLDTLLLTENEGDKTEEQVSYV

[4] = biological target: Kappa-type opioid receptor (Homo sapiens, UniProt P41145); assay: DRUGMATRIX: Opiate kappa (OP2, KOP) radioligand binding (ligand: [3H] Diprenorphine); type: cell membranes, HEK293, Membrane; settings: hek293; Not Active = under 50% inhibition at 10 µM
Kappa-type opioid receptor, sequence (P41145 whole entry): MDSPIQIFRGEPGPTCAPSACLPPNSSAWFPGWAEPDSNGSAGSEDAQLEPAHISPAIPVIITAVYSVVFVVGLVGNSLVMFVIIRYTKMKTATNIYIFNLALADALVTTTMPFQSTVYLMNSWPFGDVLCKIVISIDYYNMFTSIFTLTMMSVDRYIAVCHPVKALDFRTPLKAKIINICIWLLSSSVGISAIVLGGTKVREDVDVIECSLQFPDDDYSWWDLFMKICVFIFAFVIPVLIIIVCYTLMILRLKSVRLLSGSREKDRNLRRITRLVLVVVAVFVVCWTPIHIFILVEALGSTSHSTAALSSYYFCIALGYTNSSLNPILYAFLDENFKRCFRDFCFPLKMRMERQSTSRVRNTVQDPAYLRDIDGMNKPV

| SMILES | IC50 (Calcitonin receptor) | IC50 [1] | Ki [1] | IC50 [2] | IC50 (D(3) dopamine receptor) | IC50 ([3]; cho-k1) | IC50 [4] | IC50 ([3]; read-out: IC50) [nM] | Ki ([3]; read-out: Ki) [nM] | Ki (Calcitonin receptor) | Ki [2] | Ki (D(3) dopamine receptor) | Ki ([3]; cho-k1) | Ki [4] |
| --- | --- | --- | --- | --- | --- | --- | --- | --- | --- | --- | --- | --- | --- | --- |
| C[C@@H](O)[C@H](CO)NC(=O)[C@@H]1CSSC[C@H](NC(=O)[C@H](N)Cc2ccccc2)C(=O)N[C@@H](Cc2ccccc2)C(=O)N[C@H](Cc2c[nH]c3ccccc23)C(=O)N[C@@H](CCCCN)C(=O)N[C@@H]([C@@H](C)O)C(=O)N1 (H-[dF]CF[dW]KTC-{Threoninol(2S,3R)}; disulfide 2-7) | Not Active | Not Active | Not Active | Not Active | Not Active | Not Active | Not Active |  |  |  |  |  |  |  |
| Cc1nccn1CC1CCc2c(c3ccccc3n2C)C1=O (configuration not stated) [ONDANSETRON] | Not Active | Not Active | Not Active | Not Active | Not Active |  | Not Active | 717 | 456 |  |  |  |  |  |
| C#C[C@]1(O)CC[C@H]2[C@@H]3CCc4cc(OC)ccc4[C@H]3CC[C@@]21C [MESTRANOL] | Not Active | Not Active | Not Active | Not Active | Not Active | Not Active | Not Active |  |  |  |  |  |  |  |
| COc1cc2c(c3oc(=O)c4c(c13)CCC4=O)[C@@H]1C=CO[C@@H]1O2 [AFLATOXIN] | Not Active | Not Active | Not Active | Not Active | Not Active | Not Active | Not Active |  |  | Not Active | Not Active | Not Active | Not Active | Not Active |
| CC1(C)O[C@@H]2C[C@H]3[C@@H]4C[C@H](F)C5=CC(=O)CC[C@]5(C)[C@H]4[C@@H](O)C[C@]3(C)[C@]2(C(=O)CO)O1 [FLURANDRENOLIDE] | Not Active | Not Active | Not Active | Not Active | Not Active | Not Active | Not Active |  |  |  |  |  |  |  |
| CC1(C)O[C@@H]2C[C@H]3[C@@H]4C[C@H](F)C5=CC(=O)C=C[C@]5(C)[C@@]4(F)[C@@H](O)C[C@]3(C)[C@]2(C(=O)CO)O1 [FLUOCINOLONE ACETONIDE] | Not Active | Not Active | Not Active | Not Active | Not Active | Not Active | Not Active |  |  |  |  |  |  |  |
| CC(C(=O)O)c1cccc(C(=O)c2ccccc2)c1 (configuration not stated) [KETOPROFEN] | Not Active | Not Active | Not Active | Not Active | Not Active | Not Active | Not Active |  |  |  |  |  |  |  |
| NC(=O)NO [HYDROXYUREA] | Not Active | Not Active | Not Active | Not Active | Not Active | Not Active | Not Active |  |  |  |  |  |  |  |
| O=c1ccc2ccccc2o1 [COUMARIN] | Not Active | Not Active | Not Active | Not Active | Not Active |  | Not Active |  |  |  |  |  | Not Active |  |
| CN1C(=O)COc2c(C(=O)NC3CN4CCC3CC4)cc(Cl)cc21 (configuration not stated) [AZASETRON] | Not Active | Not Active | Not Active | Not Active | Not Active | Not Active | Not Active |  |  |  |  |  |  |  |
| C[C@H]1C[C@H]2[C@@H]3CCC4=CC(=O)C=C[C@]4(C)[C@@]3(Cl)[C@@H](O)C[C@]2(C)[C@@]1(O)C(=O)CO [BECLOMETHASONE] | Not Active | Not Active | Not Active | Not Active | Not Active | Not Active | Not Active |  |  |  |  |  |  |  |
| Cc1cc(=O)n(-c2ccccc2)n1C [ANTIPYRINE] | Not Active | Not Active | Not Active | Not Active | Not Active | Not Active | Not Active |  |  |  |  |  |  |  |
| COc1cccc2c1C(=O)c1c(O)c3c(c(O)c1C2=O)C[C@@](O)(C(=O)CO)C[C@@H]3O[C@H]1C[C@H](N)[C@@H](O)[C@H](C)O1 [EPIRUBICIN] | Not Active | Not Active | Not Active | Not Active | Not Active | Not Active | Not Active |  |  |  |  |  |  |  |
| C[C@](O)(CS(=O)(=O)c1ccc(F)cc1)C(=O)Nc1ccc(C#N)c(C(F)(F)F)c1 [(R)-BICALUTAMIDE] | Not Active | Not Active | Not Active | Not Active | Not Active | Not Active | Not Active |  |  |  |  |  |  |  |
| COP(=O)(OC)OC=C(Cl)Cl [DICHLORVOS] | Not Active | Not Active | Not Active | Not Active | Not Active | Not Active |  |  |  |  |  |  |  |  |
| CC(=O)Nc1ccc(O)cc1 [ACETAMINOPHEN] | Not Active | Not Active | Not Active | Not Active | Not Active | Not Active |  |  |  |  |  |  |  |  |
| C[C@@]12C(=O)OC(=O)[C@]1(C)[C@H]1CC[C@@H]2O1 [CANTHARIDIN] | Not Active | Not Active | Not Active | Not Active | Not Active | Not Active |  |  |  |  |  |  |  |  |
